Measured values taken from patent publication US20080293712A1, “Benzo[C][2,7]Naphtyridine Derivatives, Methods of Making Thereof and Methods of Use Thereof” (WYETH, priority 2007, published 2008).

These compounds were tested against T1, PDK-1 (Homo sapiens, UniProt O15530) (assay: PDK-1 kinase inhibition ELISA assay (phosphorylation of His6-tagged SGK1 S422D by PDK-1)). Details: not given.
T1 sequence (O15530 1-556): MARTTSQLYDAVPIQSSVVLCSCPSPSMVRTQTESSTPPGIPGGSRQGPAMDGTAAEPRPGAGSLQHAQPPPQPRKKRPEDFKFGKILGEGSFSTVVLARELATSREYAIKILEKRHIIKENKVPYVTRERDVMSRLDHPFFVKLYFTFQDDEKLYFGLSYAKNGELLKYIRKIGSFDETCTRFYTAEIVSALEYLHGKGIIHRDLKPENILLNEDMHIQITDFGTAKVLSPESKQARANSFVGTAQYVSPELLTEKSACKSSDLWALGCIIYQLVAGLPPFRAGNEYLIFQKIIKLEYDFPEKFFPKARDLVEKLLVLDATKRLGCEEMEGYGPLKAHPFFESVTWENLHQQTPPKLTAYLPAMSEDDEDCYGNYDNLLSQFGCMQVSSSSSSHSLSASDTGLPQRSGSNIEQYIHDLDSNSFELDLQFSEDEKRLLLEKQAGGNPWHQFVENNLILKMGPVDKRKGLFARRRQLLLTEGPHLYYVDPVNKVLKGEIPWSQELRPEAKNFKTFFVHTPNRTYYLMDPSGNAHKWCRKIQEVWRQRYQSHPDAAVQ
Assay type: biochemical
`COc1ccc(Nc2cncc(-c3cc4c(cnc5cc(OC)c(OC)cc54)c(N)n3)c2)cc1` [Ib-177, 8,9-dimethoxy-2-{5-[(4-methoxyphenyl)amino]pyridin-3-yl}benzo[c][2,7]naphthyridin-4-amine] was tested, and the IC50 was 383 nM.

Same assay, conditions: PDK-1 ELISA, Table 11; read-out: Average IC50
With `COc1cc2ncc3c(N)nc(-c4cncc(C(=N)NC(C)C)c4)cc3c2cc1OC` [Ib-269, 5-(4-Amino-8,9-dimethoxybenzo[c][2,7]naphthyridin-2-yl)-N-isopropylnicotin-imidamide] the IC50 was 606 nM. `COc1cc2ncc3c(N)nc(-c4cncc(OC[C@@H](N)CO)c4)cc3c2cc1OC` [Ib-10, (2S)-2-amino-3-{[5-(4-amino-8,9-dimethoxybenzo[c]-2,7-naphthyridin-2-yl)pyridin-3-yl]oxy}propan-1-ol] was tested, and the IC50 was 6 nM. `COc1cc2ncc3c(N)nc(-c4cncc(Nc5ccccc5NC(C)=O)c4)cc3c2cc1OC` [Ib-185, N-(2-{[5-(4-amino-8,9-dimethoxybenzo[c][2,7]naphthyridin-2-yl)pyridin-3-yl]amino}phenyl)acetamide] was tested, and the IC50 was 37 nM. In the case of `COc1cc2ncc3c(N)nc(-c4cncc(OC[C@@H](N)CNCC5(c6ccccc6)CC5)c4)cc3c2cc1OC` [Ib-106, (2S)-3-{[5-(4-amino-8,9-dimethoxybenzo[c][2,7]naphthyridin-2-yl)pyridin-3-yl]oxy}-N1-[(1-phenylcyclopropyl)methyl]propane-1,2-diamine], the IC50 is reported as 32 nM. `COc1cc2ncc3c(N)nc(-c4cncc(Oc5cccc(N)n5)c4)cc3c2cc1OC` [Ib-171, 2-{5-[(6-Aminopyridin-2-yl)oxy]pyridin-3-yl}-8,9-dimethoxybenzo[c][2,7]naphthyridin-4-amine] showed an IC50 of 153 nM. `COc1cc2ncc3c(N)nc(-c4cncc(Nc5ccc(CO)cc5)c4)cc3c2cc1OC` [Ib-194, (4-{[5-(4-amino-8,9-dimethoxybenzo[c][2,7]naphthyridin-2-yl)pyridin-3-yl]amino}phenyl)methanol] was tested, and the IC50 was 142 nM. `COc1cc2ncc3c(N)nc(-c4cncc(OC[C@@H](N)CN(C)S(=O)(=O)c5ccccc5)c4)cc3c2cc1OC` [Ib-79, N-[(2S)-2-amino-3-{[5-(4-amino-8,9-dimethoxybenzo[c][2,7]naphthyridin-2-yl)pyridin-3-yl]oxy}propyl]-N-methylbenzenesulfonamide] showed an IC50 of 11 nM. `COc1cc2ncc3c(N)nc(-c4cncc(Nc5ccccc5)c4)cc3c2cc1OC` [Ib-203, 2-(5-anilinopyridin-3-yl)-8,9-dimethoxybenzo[c][2,7]naphthyridin-4-amine] showed an IC50 of 283 nM. With `COc1cc2ncc3c(N)nc(-c4cncc(OC[C@@H](N)CNc5ccc(F)c(Cl)c5)c4)cc3c2cc1OC` [Ib-84, (2S)-3-{[5-(4-amino-8,9-dimethoxybenzo[c][2,7]naphthyridin-2-yl)pyridin-3-yl]oxy}-N1-(3-chloro-4-fluorophenyl)propane-1,2-diamine] the IC50 was 5 nM. Compound `COc1cc2ncc3c(N)nc(-c4cccnc4C)cc3c2cc1OC` [Ib-60] has an IC50 of 532 nM. Work on `COc1cc2ncc3c(N)nc(-c4cncc(OC[C@@H](N)CNc5ccc(F)cc5F)c4)cc3c2cc1OC` [Ib-85, (2S)-3-{[5-(4-amino-8,9-dimethoxybenzo[c][2,7]naphthyridin-2-yl)pyridin-3-yl]oxy}-N1-(2,4-difluorophenyl)propane-1,2-diamine] yielded an IC50 of 5 nM. `COc1cc2ncc3c(N)nc(-c4cncc(OC[C@@H](N)CNC(C)(C)C)c4)cc3c2cc1OC` [Ib-86, (2S)-3-{[5-(4-amino-8,9-dimethoxybenzo[c][2,7]naphthyridin-2-yl)pyridin-3-yl]oxy}-N1-tert-butylpropane-1,2-diamine] was tested, and the IC50 was 77 nM. Compound `COc1cc2ncc3c(N)nc(-c4cncc(Oc5ccncc5N)c4)cc3c2cc1OC` [Ib-170, 2-{5-[(3-Aminopyridin-4-yl)oxy]pyridin-3-yl}-8,9-dimethoxybenzo[c][2,7]naphthyridin-4-amine] has an IC50 of 115 nM. For `COc1cc2ncc3c(N)nc(-c4ccc(Br)c(F)c4)cc3c2cc1OC` [Ib-234, 2-(4-bromo-3-fluorophenyl)-8,9-dimethoxybenzo[c][2,7]naphthyridin-4-amine], the IC50 was 1000 nM. For `COc1cc2ncc3c(N)nc(-c4cncc(Nc5ccccc5C(N)=O)c4)cc3c2cc1OC` [Ib-186, 2-{[5-(4-amino-8,9-dimethoxybenzo[c][2,7]naphthyridin-2-yl)pyridin-3-yl]amino}benzamide], the IC50 was 164 nM. Compound `COc1cc2ncc3c(N)nc(-c4cncc(OC[C@@H](N)CNC(C)(C)c5cccnc5)c4)cc3c2cc1OC` [Ib-93, (2S)-3-{[5-(4-amino-8,9-dimethoxybenzo[c][2,7]naphthyridin-2-yl)pyridin-3-yl]oxy}-N1-(1-methyl-1-pyridin-3-ylethyl)propane-1,2-diamine] has an IC50 of 6 nM. With `COc1cc2ncc3c(N)nc(-c4cncc(Nc5ccc(CN)cc5)c4)cc3c2cc1OC` [Ib-192, 2-(5-{[4-(aminomethyl)phenyl]amino}pyridin-3-yl)-8,9-dimethoxybenzo[c][2,7]naphthyridin-4-amine] the IC50 was 81 nM. With `COc1cc2ncc3c(N)nc(-c4cccc(C(=O)O)c4)cc3c2cc1OC` [Ib-76, 3-(4-amino-8,9-dimethoxybenzo[c][2,7]naphthyridin-2-yl)benzoic acid] the IC50 was 524 nM. Work on `COc1cc2ncc3c(N)nc(-c4cncc(OC[C@@H](N)CSc5ccccn5)c4)cc3c2cc1OC` [Ib-159, 2-(5-{[(2R)-2-amino-3-(pyridin-2-ylthio)propyl]oxy}pyridin-3-yl)-8,9-dimethoxybenzo[c][2,7]naphthyridin-4-amine] yielded an IC50 of 3 nM. For `COc1cc2ncc3c(N)nc(-c4cncc(OC[C@@H](N)CNC(C)(C)c5ccccc5)c4)cc3c2cc1OC` [Ib-90, (2S)-3-{[5-(4-amino-8,9-dimethoxybenzo[c][2,7]naphthyridin-2-yl)pyridin-3-yl]oxy}-N1-(1-methyl-1-phenylethyl)propane-1,2-diamine], the IC50 was 7 nM. `COc1cc2ncc3c(N)nc(-c4ccc5[nH]ncc5c4)cc3c2cc1OC` [Ib-249, 2-(1H-indazol-5-yl)-8,9-dimethoxybenzo[c][2,7]naphthyridin-4-amine] gave an IC50 of 205 nM. In the case of `COc1cc2ncc3c(N)nc(-c4cncc(OC[C@@H](N)CNCCc5ccncc5)c4)cc3c2cc1OC` [Ib-97, (2S)-3-{[5-(4-amino-8,9-dimethoxybenzo[c][2,7]naphthyridin-2-yl)pyridin-3-yl]oxy}-N1-(2-pyridin-4-ylethyl)propane-1,2-diamine], the IC50 is reported as 24 nM. With `COc1cc2ncc3c(N)nc(-c4cncc(OC[C@@H](N)CNC(C)(C)c5ccccn5)c4)cc3c2cc1OC` [Ib-94, (2S)-3-{[5-(4-amino-8,9-dimethoxybenzo[c][2,7]naphthyridin-2-yl)pyridin-3-yl]oxy}-N1-(1-methyl-1-pyridin-2-ylethyl)propane-1,2-diamine] the IC50 was 4 nM. `COCCOc1cc2ncc3c(N)nc(N4CCC(O)CC4)cc3c2cc1OC` [Ia-53, 1-[4-amino-9-methoxy-8-(2-methoxyethoxy)benzo[c]-2,7-naphthyridin-2-yl]piperidin-4-ol] gave an IC50 of 2060 nM. `COCCOc1cc2ncc3c(N)nc(Cl)cc3c2cc1OC` [Ia-61, 2-Chloro-9-methoxy-8-(2-methoxyethoxy)benzo[c]-2,7-naphthyridin-4-amine] showed an IC50 of 2620 nM. With `COc1cc2ncc3c(N)nc(-c4cncc(OC[C@@H](N)CN(C)Cc5cccnc5)c4)cc3c2cc1OC` [Ib-6, (2S)-3-{[5-(4-amino-8,9-dimethoxybenzo[c]-2,7-naphthyridin-2-yl)pyridin-3-yl]oxy}-N1-methyl-N1-(pyridin-3-ylmethyl)propane-1,2-diamine] the IC50 was 4 nM.
